The target of experiment [1] is Heat shock protein HSP 90-alpha (Homo sapiens, UniProt P07900). The class given is functional, organism-based.
Experiment [2] has as its target Hepatocyte nuclear factor 4-alpha (Homo sapiens, UniProt P41235). In kind it is functional, cell-based.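 Also: biochemical luminescence-based dose-response counterscreen measuring inhibition of HNF4 dimerization, run alongside a screen for blockers of ABHD5–perilipin-5 interaction; split luciferase complementation of HNF4 fusion proteins in cell lysate measuring dimerization.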
Experiment [3] addresses Nuclear receptor subfamily 5 group A member 2 (Homo sapiens, UniProt O00482). In kind it is functional, cell-based.
In the next experiment the target is Steroidogenic factor 1 (Homo sapiens, UniProt Q13285). Kind of experiment: Counterscreen for inverse agonists of the liver receptor homolog-1 (LRH-1; NR5A2): Luminescence-based cell-based high throughput dose response assay to identify inverse agonists of the Steroidogenic Factor 1 Nuclear Receptor (SF1; NR5A1). The class given is functional.
Chain of Steroidogenic factor 1 (Q13285 whole entry): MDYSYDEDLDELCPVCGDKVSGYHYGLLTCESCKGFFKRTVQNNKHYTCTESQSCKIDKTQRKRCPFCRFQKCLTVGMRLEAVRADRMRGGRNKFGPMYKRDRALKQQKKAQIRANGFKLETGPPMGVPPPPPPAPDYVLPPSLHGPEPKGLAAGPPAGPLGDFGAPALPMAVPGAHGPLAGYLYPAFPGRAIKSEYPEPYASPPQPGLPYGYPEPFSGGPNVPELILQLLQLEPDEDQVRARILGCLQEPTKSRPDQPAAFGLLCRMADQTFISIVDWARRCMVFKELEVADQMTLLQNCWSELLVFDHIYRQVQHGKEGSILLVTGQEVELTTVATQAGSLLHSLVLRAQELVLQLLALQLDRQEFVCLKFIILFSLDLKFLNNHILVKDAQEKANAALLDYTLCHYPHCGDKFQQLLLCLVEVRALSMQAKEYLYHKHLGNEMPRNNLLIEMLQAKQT
A short description of experiment [4]: nonselective StAR promoter luciferase inhibitors – cell-based, luminescence, luciferase reporter, counter-screen for LRH-1 inverse agonist project, dose response (AID 651969). The class given is functional. In general terms: A reporter such as luciferase makes a cellular process visible.
Experiment [5] has as its target T1, Sentrin-specific protease 1 (Homo sapiens, UniProt Q9P0U3). The experiment in a line: Dose response confirmation of small molecule inhibitors of the catalytic domain of the SUMO protease, SENP1 in a FRET assay. In kind it is functional. The following applies: read-out: IC50_Mean.
Experiment [6] deals with T1, Sentrin-specific protease 1. Kind of experiment: SENP1 catalytic domain blockers, concentration series – biochemical, kinetic FRET, dose response (AID 651697). The class given is functional. The following applies: read-out: IC50_Mean.
Experiment [7] in a line: Fluorescence-based cell-based high throughput dose response assay for inhibitors of the interaction of nucleotide-binding oligomerization domain containing 2 (NOD2) and the receptor-interacting serine-threonine kinase 2 (RIPK2). The class given is functional. The following applies: Homo sapiens.
Experiment [8] deals with T2, Mitochondrial peptide methionine sulfoxide reductase (Bos taurus, UniProt P54149).
T2 sequence (P54149 whole entry): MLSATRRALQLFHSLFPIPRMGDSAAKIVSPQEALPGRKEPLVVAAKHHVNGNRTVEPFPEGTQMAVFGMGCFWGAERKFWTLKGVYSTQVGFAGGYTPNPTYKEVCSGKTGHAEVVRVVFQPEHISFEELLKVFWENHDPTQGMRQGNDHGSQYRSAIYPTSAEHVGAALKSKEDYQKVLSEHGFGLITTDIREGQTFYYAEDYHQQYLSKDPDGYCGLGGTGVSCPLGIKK
In kind it is functional.

The target in experiment [9] is Palmitoyl-protein thioesterase ABHD10, mitochondrial (Mus musculus, UniProt Q6PE15). The experiment in a line: Late stage assay provider results from the probe development effort to identify inhibitors of PME-1: fluorescence-based dose response biochemical gel-based competitive Activity-Based Protein Profiling (ABPP) inhibition of ABHD10 Set 2. The class given is functional.
Chain of Palmitoyl-protein thioesterase ABHD10, mitochondrial (Q6PE15 whole entry): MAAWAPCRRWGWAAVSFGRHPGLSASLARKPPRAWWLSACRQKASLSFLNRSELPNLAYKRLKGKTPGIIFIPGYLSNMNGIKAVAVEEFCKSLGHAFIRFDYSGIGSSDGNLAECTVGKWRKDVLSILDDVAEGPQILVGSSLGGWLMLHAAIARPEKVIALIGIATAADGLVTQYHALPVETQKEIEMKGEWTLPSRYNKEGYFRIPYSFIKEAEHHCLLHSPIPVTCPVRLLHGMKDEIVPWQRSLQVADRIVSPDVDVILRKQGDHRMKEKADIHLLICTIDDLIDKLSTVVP

The subject of another experiment is Streptococcus. Kind of experiment: GAS UMAA2166 growth inhibition – luminescence, BacTiterGlo, counter-screen for streptokinase expression inhibitor project, dose response (AID 1915).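 Also: potency for reduction of bacterial viability or growth.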 The class given is functional, organism-based.
The test system of the next experiment is INS1. The experiment in a line: INS-1E survival protection against cytokine death – cell-based, luminescence, retest, dose response (AID 449756).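 Also: cell death triggered by IL-1 beta plus TNF-alpha plus IFN-gamma mixture; protective hits raise ATP signal compared with cytokine alone wells.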 In kind it is functional. The following applies: Rattus norvegicus.
A short description of experiment [10]: bead-based luminescence quenchers, dual-tagged ARNT – biochemical, AlphaScreen, cherry-pick, artefact control for ARNT-TACC3 interaction inhibitor project, dose response (AID 651705).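 Also: AlphaScreen bead proximity signal that flags compounds interfering with the detection technology; potency reflects signal decrease which marks the compound as an assay artifact.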 The class given is functional. A general note: Bead proximity is the source of the signal in Alpha formats.
Another experiment has as its target T3, Protein RecA (Mycobacterium tuberculosis, UniProt P9WHJ3).
T3 sequence (P9WHJ3 whole entry): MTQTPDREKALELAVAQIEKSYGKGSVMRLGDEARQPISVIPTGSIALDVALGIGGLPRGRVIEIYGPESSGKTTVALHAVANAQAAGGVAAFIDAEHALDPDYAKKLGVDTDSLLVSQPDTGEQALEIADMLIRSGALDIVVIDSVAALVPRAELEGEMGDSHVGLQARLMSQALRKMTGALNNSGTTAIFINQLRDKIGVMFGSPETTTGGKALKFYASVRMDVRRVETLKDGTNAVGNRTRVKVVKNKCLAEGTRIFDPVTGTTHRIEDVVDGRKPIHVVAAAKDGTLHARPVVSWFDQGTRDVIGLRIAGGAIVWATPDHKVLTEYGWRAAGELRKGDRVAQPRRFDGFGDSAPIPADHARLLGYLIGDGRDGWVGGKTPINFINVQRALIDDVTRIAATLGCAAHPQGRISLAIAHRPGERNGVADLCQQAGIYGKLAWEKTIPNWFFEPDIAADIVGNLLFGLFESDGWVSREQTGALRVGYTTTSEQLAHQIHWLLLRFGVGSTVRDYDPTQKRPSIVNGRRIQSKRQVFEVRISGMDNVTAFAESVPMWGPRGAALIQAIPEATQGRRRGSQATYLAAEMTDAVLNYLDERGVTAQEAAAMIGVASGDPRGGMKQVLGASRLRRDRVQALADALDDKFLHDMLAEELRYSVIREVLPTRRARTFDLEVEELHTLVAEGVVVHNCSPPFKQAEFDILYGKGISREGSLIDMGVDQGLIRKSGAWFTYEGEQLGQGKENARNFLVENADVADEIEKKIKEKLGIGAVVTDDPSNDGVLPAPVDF
Kind of experiment: Fluorescence Cell-Free Homogeneous Dose Retest to Identify Inhibitors of RecA-Intein Splicing Activity. [Related pubchem assays (depositor defined):AID2097, AID2223, AID489010, AID492950]. In kind it is functional.

The target of experiment [11] is T4, Apoptotic protease-activating factor 1 (Homo sapiens, UniProt O14727).
T4 sequence (O14727 whole entry): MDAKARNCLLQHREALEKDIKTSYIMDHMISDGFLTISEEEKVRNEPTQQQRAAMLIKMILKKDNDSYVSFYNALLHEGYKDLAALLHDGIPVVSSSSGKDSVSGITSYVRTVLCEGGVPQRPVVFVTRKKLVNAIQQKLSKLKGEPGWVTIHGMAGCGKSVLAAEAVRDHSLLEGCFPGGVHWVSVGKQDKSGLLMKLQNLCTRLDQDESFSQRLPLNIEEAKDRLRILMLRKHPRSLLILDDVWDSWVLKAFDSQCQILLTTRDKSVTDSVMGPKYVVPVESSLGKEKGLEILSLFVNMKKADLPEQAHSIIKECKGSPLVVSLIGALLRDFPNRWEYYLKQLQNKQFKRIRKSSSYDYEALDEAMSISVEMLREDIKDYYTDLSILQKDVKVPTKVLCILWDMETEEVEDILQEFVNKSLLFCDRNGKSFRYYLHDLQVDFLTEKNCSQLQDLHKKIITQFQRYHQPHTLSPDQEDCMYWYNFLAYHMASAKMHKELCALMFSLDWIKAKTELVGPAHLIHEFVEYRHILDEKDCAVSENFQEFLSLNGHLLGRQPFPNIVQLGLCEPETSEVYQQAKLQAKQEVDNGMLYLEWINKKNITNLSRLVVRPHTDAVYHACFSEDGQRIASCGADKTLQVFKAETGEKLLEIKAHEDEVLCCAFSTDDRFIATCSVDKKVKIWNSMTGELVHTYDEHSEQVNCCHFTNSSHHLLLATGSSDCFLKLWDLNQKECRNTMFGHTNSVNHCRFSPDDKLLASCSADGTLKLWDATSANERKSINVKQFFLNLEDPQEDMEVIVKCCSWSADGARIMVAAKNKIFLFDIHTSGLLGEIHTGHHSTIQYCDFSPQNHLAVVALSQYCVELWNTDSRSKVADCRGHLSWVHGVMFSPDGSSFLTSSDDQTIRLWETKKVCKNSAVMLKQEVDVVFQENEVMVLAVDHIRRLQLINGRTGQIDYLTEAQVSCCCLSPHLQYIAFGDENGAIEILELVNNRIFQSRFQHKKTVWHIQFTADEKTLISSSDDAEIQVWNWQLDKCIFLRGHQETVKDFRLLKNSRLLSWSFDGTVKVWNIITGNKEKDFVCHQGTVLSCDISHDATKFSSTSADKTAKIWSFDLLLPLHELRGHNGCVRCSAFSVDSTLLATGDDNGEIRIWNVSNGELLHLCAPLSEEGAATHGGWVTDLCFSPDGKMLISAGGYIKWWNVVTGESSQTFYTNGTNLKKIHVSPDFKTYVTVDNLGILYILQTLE
In kind it is functional.

Experiment [12] addresses T5, Replicative DNA helicase DnaB (Mycobacterium tuberculosis, UniProt P9WMR3).
T5 sequence (P9WMR3 whole entry): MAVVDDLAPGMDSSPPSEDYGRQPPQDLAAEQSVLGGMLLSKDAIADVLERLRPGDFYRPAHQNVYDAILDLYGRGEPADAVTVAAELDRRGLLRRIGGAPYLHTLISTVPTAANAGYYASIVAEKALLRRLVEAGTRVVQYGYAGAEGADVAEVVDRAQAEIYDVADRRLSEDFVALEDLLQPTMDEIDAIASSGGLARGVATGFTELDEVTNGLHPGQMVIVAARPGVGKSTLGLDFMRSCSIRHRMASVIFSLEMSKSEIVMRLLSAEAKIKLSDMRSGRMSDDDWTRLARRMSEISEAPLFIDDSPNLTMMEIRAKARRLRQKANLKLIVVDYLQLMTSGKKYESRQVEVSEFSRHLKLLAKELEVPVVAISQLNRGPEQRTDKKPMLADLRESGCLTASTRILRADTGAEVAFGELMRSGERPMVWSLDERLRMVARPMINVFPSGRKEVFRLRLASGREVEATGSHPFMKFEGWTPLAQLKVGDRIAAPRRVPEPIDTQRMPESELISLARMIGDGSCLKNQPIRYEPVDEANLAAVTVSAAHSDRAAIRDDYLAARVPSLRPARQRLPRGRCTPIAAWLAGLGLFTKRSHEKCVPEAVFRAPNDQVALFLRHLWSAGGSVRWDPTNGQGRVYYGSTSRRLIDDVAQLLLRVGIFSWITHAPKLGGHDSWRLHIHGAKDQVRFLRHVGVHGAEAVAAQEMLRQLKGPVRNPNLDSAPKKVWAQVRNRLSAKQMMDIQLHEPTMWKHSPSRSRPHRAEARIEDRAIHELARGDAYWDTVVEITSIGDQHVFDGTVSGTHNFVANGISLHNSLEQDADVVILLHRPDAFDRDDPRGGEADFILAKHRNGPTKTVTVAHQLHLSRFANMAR
The experiment in a line: DnaB intein splicing inhibitors, dose response, biochemical, cell-free fluorescence (AID 449749). The class given is functional.

The test system of experiment [13] is Streptococcus sp. 'group A'. Kind of experiment: Streptococcus pyogenes SK(-)GAS viability under kanamycin – luminescence, BacTiterGlo, confirmation, counter-screen for streptokinase expression inhibitor project, dose response (AID 1900). The class given is functional, organism-based. (The purpose of a counterscreen is to sort out artefacts and off-target activity.)

In experiment [14] the target is DNA repair and recombination protein RAD54-like (Homo sapiens, UniProt Q92698). The experiment in a line: RAD54 Holliday junction migration blockers – biochemical, fluorescence, cherry-picked samples, dose series, confirmation (AID 651657). In kind it is functional.
Chain of DNA repair and recombination protein RAD54-like (Q92698 whole entry): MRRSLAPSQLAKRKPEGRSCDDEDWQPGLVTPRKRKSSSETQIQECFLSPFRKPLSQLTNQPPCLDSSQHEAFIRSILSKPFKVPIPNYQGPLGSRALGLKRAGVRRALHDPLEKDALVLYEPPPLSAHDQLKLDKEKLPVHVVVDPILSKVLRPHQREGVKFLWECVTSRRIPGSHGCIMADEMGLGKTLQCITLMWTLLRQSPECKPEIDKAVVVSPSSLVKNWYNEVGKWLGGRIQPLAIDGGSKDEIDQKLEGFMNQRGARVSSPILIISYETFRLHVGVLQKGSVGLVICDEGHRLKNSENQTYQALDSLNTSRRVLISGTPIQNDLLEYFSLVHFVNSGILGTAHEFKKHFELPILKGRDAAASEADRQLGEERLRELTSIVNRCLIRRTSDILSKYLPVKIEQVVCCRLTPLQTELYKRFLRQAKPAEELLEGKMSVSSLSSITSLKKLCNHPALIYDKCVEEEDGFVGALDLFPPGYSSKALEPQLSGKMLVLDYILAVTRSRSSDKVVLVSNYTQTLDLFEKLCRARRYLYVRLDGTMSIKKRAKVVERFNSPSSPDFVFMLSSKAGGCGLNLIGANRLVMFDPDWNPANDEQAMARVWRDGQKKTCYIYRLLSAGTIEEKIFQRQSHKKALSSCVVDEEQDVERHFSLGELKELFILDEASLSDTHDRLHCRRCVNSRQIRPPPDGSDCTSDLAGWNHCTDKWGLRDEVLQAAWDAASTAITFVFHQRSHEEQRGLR
Experiment [15] can be described thus: Luminescence Cell-Based Dose Confirmation HTS to Identify Inhibitors of Polyadenylation. The class given is functional.
The nature of experiment [16]: NIH3T3 cell viability loss – ATP luminescence, mouse fibroblasts, counter-screen, dose response (AID 2010).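 Also: cells exposed to compound for about 90 hours before reading.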 The class given is functional, cell-based.
Experiment [17] addresses T6, DNA repair protein RAD52 homolog (Homo sapiens, UniProt P43351).
T6 sequence (P43351 whole entry): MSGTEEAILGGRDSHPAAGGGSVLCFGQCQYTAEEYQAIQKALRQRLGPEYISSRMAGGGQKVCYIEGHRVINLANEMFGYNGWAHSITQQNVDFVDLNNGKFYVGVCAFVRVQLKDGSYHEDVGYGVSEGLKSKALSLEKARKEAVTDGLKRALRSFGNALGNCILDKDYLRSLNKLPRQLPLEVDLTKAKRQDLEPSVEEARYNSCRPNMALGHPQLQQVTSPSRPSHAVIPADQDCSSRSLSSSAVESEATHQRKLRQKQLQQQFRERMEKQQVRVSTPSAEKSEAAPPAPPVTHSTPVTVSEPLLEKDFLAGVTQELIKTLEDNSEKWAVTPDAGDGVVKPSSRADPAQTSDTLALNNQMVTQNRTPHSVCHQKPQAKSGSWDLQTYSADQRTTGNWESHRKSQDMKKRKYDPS
In kind it is functional, biochemical.

The nature of experiment [18]: Trypanosoma cruzi growth suppression in host cells – NIH3T3 host cells, beta-gal luminescence, confirmation (AID 2044).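 Also: intracellular parasites grown in NIH/3T3 mouse fibroblasts as host cells; luminescent beta-galactosidase reporter signal from transgenic T. cruzi replicating inside host cells; inhibitors lower the luminescence signal.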 In kind it is functional, cell-based.

Activity calls are given as the source filed them. A value given as a limit tells only on which side of the number the result lay.

T1 sequence (Q9P0U3 whole entry, the tested form may be a part): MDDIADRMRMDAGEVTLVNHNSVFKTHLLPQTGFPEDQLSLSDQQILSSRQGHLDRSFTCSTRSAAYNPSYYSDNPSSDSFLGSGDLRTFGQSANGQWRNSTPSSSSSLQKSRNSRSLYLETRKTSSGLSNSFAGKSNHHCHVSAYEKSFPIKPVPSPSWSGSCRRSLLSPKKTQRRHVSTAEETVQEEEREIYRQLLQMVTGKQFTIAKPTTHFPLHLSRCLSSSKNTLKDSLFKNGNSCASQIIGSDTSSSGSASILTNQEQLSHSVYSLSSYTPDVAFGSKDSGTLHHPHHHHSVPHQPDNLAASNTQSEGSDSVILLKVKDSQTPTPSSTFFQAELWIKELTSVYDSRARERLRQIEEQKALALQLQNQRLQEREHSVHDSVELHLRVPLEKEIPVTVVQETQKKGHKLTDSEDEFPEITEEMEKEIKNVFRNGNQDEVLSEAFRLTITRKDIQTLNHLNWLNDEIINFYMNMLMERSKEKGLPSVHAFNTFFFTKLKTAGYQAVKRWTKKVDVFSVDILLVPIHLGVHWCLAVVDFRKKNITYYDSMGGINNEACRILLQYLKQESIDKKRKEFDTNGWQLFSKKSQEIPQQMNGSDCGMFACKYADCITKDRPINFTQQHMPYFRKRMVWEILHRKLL
Chain of Nuclear receptor subfamily 5 group A member 2 (O00482 whole entry): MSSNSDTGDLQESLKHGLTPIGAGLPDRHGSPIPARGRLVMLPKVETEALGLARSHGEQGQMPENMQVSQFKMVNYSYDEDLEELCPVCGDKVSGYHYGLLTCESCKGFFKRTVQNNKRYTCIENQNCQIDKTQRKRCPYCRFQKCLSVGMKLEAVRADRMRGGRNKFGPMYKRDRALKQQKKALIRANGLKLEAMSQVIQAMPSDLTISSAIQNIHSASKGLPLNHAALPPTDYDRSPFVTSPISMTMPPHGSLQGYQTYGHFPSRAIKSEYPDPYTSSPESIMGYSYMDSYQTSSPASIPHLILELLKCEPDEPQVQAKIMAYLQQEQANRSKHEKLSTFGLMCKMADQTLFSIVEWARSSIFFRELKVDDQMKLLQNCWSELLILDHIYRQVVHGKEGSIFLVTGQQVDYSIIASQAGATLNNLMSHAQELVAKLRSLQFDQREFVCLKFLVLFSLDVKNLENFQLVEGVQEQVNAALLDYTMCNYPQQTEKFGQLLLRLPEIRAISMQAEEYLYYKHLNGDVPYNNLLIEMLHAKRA
Chain of Hepatocyte nuclear factor 4-alpha (P41235 whole entry, the tested form may be a part): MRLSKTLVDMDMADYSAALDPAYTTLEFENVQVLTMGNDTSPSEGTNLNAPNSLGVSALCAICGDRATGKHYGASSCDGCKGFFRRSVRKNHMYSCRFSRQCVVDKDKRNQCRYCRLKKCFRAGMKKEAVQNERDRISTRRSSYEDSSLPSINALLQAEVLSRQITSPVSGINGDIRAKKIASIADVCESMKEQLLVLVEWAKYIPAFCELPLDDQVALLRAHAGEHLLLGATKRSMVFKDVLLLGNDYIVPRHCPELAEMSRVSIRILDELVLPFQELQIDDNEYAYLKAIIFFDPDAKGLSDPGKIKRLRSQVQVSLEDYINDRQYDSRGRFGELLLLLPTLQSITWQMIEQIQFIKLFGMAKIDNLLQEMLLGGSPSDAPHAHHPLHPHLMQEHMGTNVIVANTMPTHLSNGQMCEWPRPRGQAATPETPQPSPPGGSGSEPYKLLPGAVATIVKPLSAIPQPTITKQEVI

The AC50 is the concentration at which the activity in the assay is half-maximal. On to `CC1=CC2C(C(O)CC3(C)C2CC(C)C32OCOC23COCO3)C2(C)CC(C=O)=C(O)C=C12` (configuration not stated), for which the AC50 in experiment [1] was 4.34 µM (active). Further, the IC50 in [2] was 11 µM (inactive).

`COc1ccc(OC)c(NC(=O)c2ccccc2NC(=O)c2ccco2)c1`: the IC50 in [3] is 24 µM (inactive); at Steroidogenic factor 1, 11.4 µM (inactive); in experiment [4], 35.9 µM (inactive).

Regarding `O=C1c2cc(CO)cc(O)c2C(=O)c2c(O[C@@H]3OC(CO)[C@@H](O)[C@@H](O)[C@@H]3O)cccc21` (some centres not stated), the IC50 in [5] is 17.4 µM (active); in experiment [6], 22.1 µM (inactive).

As for `Cn1cnc([N+](=O)[O-])c1S(=O)(=O)Oc1ccc(Cl)cc1`, the IC50 is 4.09 µM (active) in experiment [7] and 42.8 µM (inactive) in experiment [8].

For the molecule `CCOC(=O)N1C(=O)[C@@](CC)(c2cccc(C)c2)N1C(=O)OCC`, the IC50 in experiment [9] was 0.06 µM (active).

As a reminder, the EC50 is the concentration that produces a half-maximal response. `Cc1[nH]n(-c2ccccc2)c(=O)c1/C=N\NC(=O)C1COc2ccccc2O1` (configuration not stated): the EC50 was 8.94 µM (active) with Streptococcus, 17.5 µM (active) at Protein RecA and 1.36 µM (active) in experiment [13]. Moreover, the AC50 in the experiment on INS1 was 5.03 µM (active); in [10] it was 104 µM (active); in [12] it was 40.9 µM (active). The IC50 in experiment [11] was 8.83 µM (active).

On to `COc1ccc(OC)c(Nc2nc(NCCO)c3ccccc3n2)c1`, for which the results for the concentration at half-maximal activity (AC50) in experiment [14] and in [17] were 11.6 µM (active) and 4.32 µM (active), respectively. The values for the EC50 in [15], in [16] and in experiment [18] were > 120 µM (not active), > 30 µM (not active) and 2.1 µM (active), respectively.

Values taken from ChEMBL document CHEMBL1201862, “PubChem BioAssay data set” (2004).
